Measurements from the OligoGym collection.
Values joined by “and” are separate entries in the source; they are usually repeats but may differ in a detail not shown here. Identical values can stand only once. After the bases stand the sugars from the 5' end (letter, count) and the backbone: PS all phosphorothioate, else s phosphorothioate and o phosphodiester by linkage. Methylation of C is not given here. e = 2'-O-(2-methoxyethyl) (MOE); k = constrained ethyl (cEt); d = 2'-deoxy (DNA); m = 2'-O-methyl

Molecular target: HSD17B13
Conditions: ASO, HepaRG

Row | Sequence | target mRNA inhibition (1 µM) | other results
1 | GCACCGTTTTGGGCTA (sugars k3 d1 m1 d8 k3, PS) | 67% | 
2 | CAGAATAGAGTTGCAC (sugars k3 d10 k3, PS) | 50% | 
3 | GTTGAGATAAAGCTGC (sugars k3 d10 k3, PS) | 54% | 
4 | GTAAGTATTCCATCTA (sugars k3 d10 k3, PS) | 45% | 
5 | ACCAAACTTCCAGCAG (sugars k3 d1 m1 d8 k3, PS) | 54% | 
6 | GGATGATGTTCATGGC (sugars k3 d10 k3, PS) | 82% | target mRNA inhibition (0.02 µM): 4%; target mRNA inhibition (0.078 µM): 40%; target mRNA inhibition (0.313 µM): 75%; target mRNA inhibition (1.25 µM): 80%; target mRNA inhibition (5 µM): 76%
7 | CTACTTTCAAACCTTG (sugars k3 d10 k3, PS) | 57% | 
8 | ACATTGCAGTTATTAG (sugars k3 d10 k3, PS) | 42% | 
9 | GAATACGCTGAGAGTT (sugars k3 d10 k3, PS) | 11% | 
10 | AACCTAATAACTACAT (sugars k3 d10 k3, PS) | 0% | 
11 | CCCAAAAATGTCCTAG (sugars k3 d10 k3, PS) | 18% | 
12 | CAATTTATCATACCAC (sugars k3 d10 k3, PS) | 37% | 
13 | ATTCGAATTTCTTCAA (sugars k3 d10 k3, PS) | 65% | 
14 | CATTAAGCTTAGTATA (sugars k3 d10 k3, PS) | 19% | 
15 | AGCTGAGTGGATTACA (sugars k3 d10 k3, PS) | 29% | 
16 | CCTCAAATGAGGCGGC (sugars k3 d10 k3, PS) | 47% | 
17 | TCCAGTAGGTGTGTTT (sugars k3 d10 k3, PS) | 47% | 
18 | GTGTTCTTGTTGATAT (sugars k3 d9 k3 e1, PS) | 66% | 
19 | TTATGATAATTTGGTG (sugars k3 d10 k3, PS) | 0% | 
20 | TAGCTTTTGTCCACCT (sugars kkdddddddddkekek, PS) | 71% | target mRNA inhibition (0.02 µM): 0%; target mRNA inhibition (0.078 µM): 3%; target mRNA inhibition (0.313 µM): 29%; target mRNA inhibition (1.25 µM): 53%; target mRNA inhibition (5 µM): 48%
21 | AAGATTAGTTAACCTT (sugars k3 d10 k3, PS) | 24% | 
22 | GCTTAAATGTTTAACC (sugars k3 d10 k3, PS) | 67% | 
23 | TGATTGAGTTCTCCAC (sugars k3 d9 k3 e1, PS) | 30% | 

Row | Sequence | target mRNA inhibition (1 µM) | other results
24 | GTGCCAAACCAATGTT (sugars kkdddddddddkekek, PS) | 38% | 
25 | TTGGTAAGTATTCCAT (sugars k3 d10 k3, PS) | 20% | 
26 | CCGAAAAAAGTGGAGG (sugars k3 d10 k3, PS) | 31% | 
27 | CAGCATTGATTCGAAA (sugars k3 d9 k3 e1, PS) | 53% | 
28 | TGATGTAGTGGGAGTC (sugars k3 d10 k3, PS) | 65% | 
29 | AGTTGCACCGTTTTGG (sugars k3 d10 k3, PS) | 55% | 
30 | AATAGAGTCGGTCACC (sugars k3 d1 m1 d8 k3, PS) | 57% | 
31 | ATATCAATGCCTTAGC (sugars k3 d10 k3, PS) | 32% | 
32 | CTACTTGAACAGTCTT (sugars kkdddddddddkekek, PS) | 47% | 
33 | ATTTATTGGTATGGTA (sugars k3 d10 k3, PS) | 46% | 
34 | GACAGACCAAGTAGCT (sugars k3 d10 k3, PS) | 39% | 
35 | GTAGTGGGAGTCGGAT (sugars k3 d10 k3, PS) | 48% | 
36 | ATTGCAGTTATTAGAA (sugars k3 d10 k3, PS) | 42% | 
37 | TCAACCTGCACACCAT (sugars k3 d10 k3, PS) | 72% | target mRNA inhibition (0.02 µM): 14%; target mRNA inhibition (0.078 µM): 32%; target mRNA inhibition (0.313 µM): 47%; target mRNA inhibition (1.25 µM): 71%; target mRNA inhibition (5 µM): 84%
38 | GACAGTTGAGTAGTGT (sugars k3 d10 k3, PS) | 46% | 
39 | CACTGATTTAGTTGGT (sugars k3 d10 k3, PS) | 66% | 
40 | TACAACCTGGTTTCAT (sugars k3 d10 k3, PS) | 25% | 
41 | TAGCUGTGCACTCATT (sugars k3 d1 m1 d8 k3, PS) | 60% | 
42 | ATAAGAAGAGAGCTCA (sugars k3 d10 k3, PS) | 14% | 
43 | TTTTATAGACTGGGTA (sugars k3 d10 k3, PS) | 53% | 
44 | AAATGTCCTAGGATGT (sugars k3 d10 k3, PS) | 36% | 
45 | TCACCAACGACTCCAA (sugars k3 d10 k3, PS) | 19% | 
46 | TCTTAGCTGTGCACTC (sugars k3 d1 m1 d8 k3, PS) | 71% | 

Row | Sequence | target mRNA inhibition (1 µM) | other results
47 | GATTGCATAAGAGCCA (sugars k3 d10 k3, PS) | 82% | target mRNA inhibition (0.02 µM): 6%; target mRNA inhibition (0.078 µM): 31%; target mRNA inhibition (0.313 µM): 57%; target mRNA inhibition (1.25 µM): 67%; target mRNA inhibition (5 µM): 58%
48 | CAGGCTGTAAGAGTCA (sugars k3 d10 k3, PS) | 56% | 
49 | TTTTTAAGAGGCATGA (sugars k3 d10 k3, PS) | 60% | 
50 | AGACCAAAAAGATGGC (sugars k3 d10 k3, PS) | 80% | target mRNA inhibition (0.02 µM): 4%; target mRNA inhibition (0.078 µM): 35%; target mRNA inhibition (0.313 µM): 69%; target mRNA inhibition (1.25 µM): 82%; target mRNA inhibition (5 µM): 72%
51 | TATTAGAAGTCAGCCC (sugars k3 d10 k3, PS) | 27% | 
52 | GAAGUTAGTATAGTTA (sugars k3 d1 m1 d8 k3, PS) | 43% | 
53 | TGACAATGGTTGCCAC (sugars k3 d1 m1 d8 k3, PS) | 55% | 
54 | AGCTTGGAAGGAGACT (sugars k3 d10 k3, PS) | 69% | 
55 | GGAATGCTCATATTAA (sugars k3 d10 k3, PS) | 19% | 
56 | CATTAATGCCACCCTA (sugars k3 d10 k3, PS) | 8% | 
57 | ATTAAGCAGAATTGTG (sugars k3 d10 k3, PS) | 8% | 
58 | CCAATTTAAATCAGGC (sugars k3 d10 k3, PS) | 73% | target mRNA inhibition (0.02 µM): 0%; target mRNA inhibition (0.078 µM): 17%; target mRNA inhibition (0.313 µM): 52%; target mRNA inhibition (1.25 µM): 72%; target mRNA inhibition (5 µM): 89%
59 | TGTCCAGAAGTATGTG (sugars k3 d10 k3, PS) | 0% | 
60 | TCAATTTATCATACCA (sugars k3 d10 k3, PS) | 26% | 
61 | CAAGTTTTCACCTCAG (sugars k3 d10 k3, PS) | 93% | target mRNA inhibition (0.02 µM): 17%; target mRNA inhibition (0.078 µM): 41%; target mRNA inhibition (0.313 µM): 75%; target mRNA inhibition (1.25 µM): 92%; target mRNA inhibition (5 µM): 95%
62 | CACTGCCAGATTGCAC (sugars k3 d10 k3, PS) | 38% | 
63 | TAAGTTACCAGAGCAT (sugars k3 d10 k3, PS) | 77% | target mRNA inhibition (0.02 µM): 0%; target mRNA inhibition (0.078 µM): 0%; target mRNA inhibition (0.313 µM): 30%; target mRNA inhibition (1.25 µM): 71%; target mRNA inhibition (5 µM): 91%
64 | CTGCTAGTGCCAAACC (sugars k3 d9 k3 e1, PS) | 67% | 
65 | CAGCATATTCATTTGG (sugars k3 d10 k3, PS) | 49% | 
66 | GAATTGCTCACCCTTT (sugars k3 d10 k3, PS) | 24% | 
67 | TTGACCTCAAATGTCT (sugars k3 d10 k3, PS) | 0% | 
68 | AGGTTTAGCAATTTAG (sugars k3 d10 k3, PS) | 54% | 
69 | GACTCCAAGTAGGAGT (sugars k3 d10 k3, PS) | 0% | 

Row | Sequence | target mRNA inhibition (1 µM) | other results
70 | ATATGTCCAGGTTGAG (sugars k3 d10 k3, PS) | 61% | 
71 | AAACCTTCCCTGTGTA (sugars k3 d10 k3, PS) | 34% | 
72 | TATCATACCACATACC (sugars k3 d10 k3, PS) | 24% | 
73 | CTCAGGCTGTAAGAGT (sugars k3 d9 k3 e1, PS) | 21% | 
74 | CGTTATAAGTTTCATG (sugars k3 d10 k3, PS) | 33% | 
75 | TGGCATGGCTACAGAT (sugars kkdddddddddkekek, PS) | 58% | 
76 | CTCTAATGTTTCTTGA (sugars k3 d10 k3, PS) | 53% | 
77 | GTTTTTTGAACCGTAT (sugars k3 d10 k3, PS) | 71% | target mRNA inhibition (0.02 µM): 0%; target mRNA inhibition (0.078 µM): 0%; target mRNA inhibition (0.313 µM): 9%; target mRNA inhibition (1.25 µM): 56%; target mRNA inhibition (5 µM): 74%
78 | GCCAGGGAATGCTCAT (sugars k3 d10 k3, PS) | 38% | 
79 | AATATTGAGGCACTGG (sugars k3 d10 k3, PS) | 54% | 
80 | TCCTGTGTTAGCTTTA (sugars k3 d9 k3 e1, PS) | 75% and 50% | target mRNA inhibition (0.02 µM): 0%; target mRNA inhibition (0.078 µM): 0%; target mRNA inhibition (0.313 µM): 34%; target mRNA inhibition (1.25 µM): 50%; target mRNA inhibition (5 µM): 81%
81 | GATAGAGCACATGGCC (sugars k3 d10 k3, PS) | 20% | 
82 | AGGTAGCTTTTGTCCA (sugars k3 d1 m1 d8 k3, PS) | 59% | 
83 | GTTTTTAAGAGGCATG (sugars kkdddddddddkekek, PS) | 79% | target mRNA inhibition (0.02 µM): 15%; target mRNA inhibition (0.078 µM): 13%; target mRNA inhibition (0.313 µM): 12%; target mRNA inhibition (1.25 µM): 61%; target mRNA inhibition (5 µM): 71%
84 | AATCCCAACCAAACTT (sugars k3 d10 k3, PS) | 23% | 
85 | CATACCCATTCTAACT (sugars k3 d10 k3, PS) | 6% | 
86 | ACTTTCATAGGGAGAC (sugars k3 d10 k3, PS) | 80% | target mRNA inhibition (0.02 µM): 0%; target mRNA inhibition (0.078 µM): 8%; target mRNA inhibition (0.313 µM): 25%; target mRNA inhibition (1.25 µM): 69%; target mRNA inhibition (5 µM): 83%
87 | ATACTATTCTCCAACT (sugars k3 d10 k3, PS) | 25% | 
88 | CTCAGGCTGTAAGAGT (sugars k3 d1 m1 d8 k3, PS) | 46% | 
89 | GGGAAAGAAGTCTCCT (sugars k3 d10 k3, PS) | 13% | 
